Source: US20120059036A1, “METHOD FOR REDUCING THROMBOCYTOPENIA AND THROMBOCYTOPENIA-ASSOCIATED MORTALITY” (priority 2008, published 2012)

Tests used:
[1] = tested on: patients experiencing ST-segment elevation myocardial infarction (STEMI); experiment: […] Phase III study: clinical outcomes (death, reinfarction, revascularization, stent thrombosis) at 30 days and 8 months; type: in vivo, human; conditions: for probability of death/MI: within eight months after treatment, intent-to-treat population
Procedure: (§1) The inclusion criteria were (1) chest pain for longer than 30 minutes with an electrocardiographic ST-segment elevation of 1 mm or greater in two or more contiguous electrocardiogram leads, or with a new left bundle-branch block, and (2) admission either within 12 hours of symptom onset or between 12 and 24 hours after onset with evidence of continuing ischemia. The exclusion criteria included administration of fibrinolytics in the previous 30 days, major surgery within 15 days, and active bleeding or previous stroke in the last six months. Immediately after eligibility criteria were met and before the visualization of coronary arteries through angiography, the treating physician at each investigational site performed open-label assignments of study treatments via sealed envelopes.
(§2) This type of regimen is described in U.S. Pat. No. 6,770,660. Abciximab was administered in a 0.25 mg/kg bolus, followed by 0.125 μg/kg/min continuous infusion for 12 hours. The administration of both drugs began at first medical contact, before arterial sheath insertion. Heparin was given at 40 to 70 U/kg, targeting an activated clotting time of at least 200 seconds. Patients received aspirin (160-325 mg orally or 250 mg intravenously, followed by 80-125 mg/d orally indefinitely) and clopidogrel (300 mg orally and then 75 mg/d for at least three months).
(§3) A 12-lead electrocardiogram was recorded before the procedure and 90 minutes after the last balloon inflation in the infarct-related artery. Follow-up visits were scheduled at one, four, and eight months.
(§4) The data for all patients with primary end-point events were reviewed by an independent adjudication committee whose members were blinded to treatment assignments. Events adjudication was performed separately by two members, and in case of disagreement, the opinion of the third member was obtained and the final decision taken by consensus. The committee was also responsible for the adjudication of all clinical events according to the Academic Research Consortium.^18
(§5) Discrete data were summarized as frequencies, and comparisons were made with the likelihood-ratio χ^2 test or Fisher exact test. Continuous data were expressed as mean (SD) or median and interquartile range according to their distribution; comparisons were made with a one-way analysis of variance or the Kruskal-Wallis test.

[2] = tested on: patients experiencing ST-segment elevation myocardial infarction (STEMI); experiment: […] primary end point: at least 50% resolution of ST-segment elevation on 12-lead electrocardiogram 90 minutes after PCI; type: in vivo, human; conditions: for percentage of patients achieving at least 50% ST-segment resolution / patients achieving at least 50% ST-segment resolution: intention-to-treat analysis, within 90 minutes following PCI; for patients achieving at least 50% ST-segment resolution: out of 361 patients
Procedure: as §1, §2, §3
Changes in the ST-segment of the electrocardiogram were evaluated cumulatively before and 90 minutes after intervention. ST-segment elevation was measured to the nearest 0.5 mm at 60 milliseconds after the J point by a single experienced cardiologist who was blinded to treatment assignments. […] Quantitative angiographic analyses were performed with a validated edge-detection system (CAAS II; Pie Medical, Maastricht, the Netherlands), and coronary flow was classified according to Thrombolysis in Myocardial Infarction (TIMI) criteria. Angiographic analyses and TIMI grading were performed by one independent cardiologist who was blinded to treatment assignments.
This was based on both intention-to-treat and per-protocol principles and was applied to an exploratory analysis across several prespecified subgroups. The Cochran-Mantel-Haenszel χ^2 test was performed to evaluate possible imbalances of the relative risk among different recruiting centers.

[3] = tested on: patients experiencing ST-segment elevation myocardial infarction (STEMI); experiment: MULTISTRATEGY safety analysis: bleeding, transfusion, thrombocytopenia and thrombocytopenia-associated mortality; conditions: for Major bleeding / Minor bleedng / Moderate thrombocytoperia (<100000 cells/mm^3) / Red blood cells transfusion ≧1 Units / Red blood cells transfusion ≧2 Units / Severe thrombocytoperia (<50000 cells/mm^3): At 30 d, safety analysis
Procedure: as §1, §2, §4, §5

[4] = At 8 mo, number of patients with event
[5] = At 30 d, number of patients with event

Compound: CCCCS(=O)(=O)N[C@@H](Cc1ccc(OCCCCC2CCNCC2)cc1)C(=O)O.Cl.O [Tirofiban Plus Uncoated Stent]
- Clinically driven target-vessel revascularization ([1]; At 8 mo, Kaplan-Meier estimate): (9.1) %
- Composite of death, reinfarction, or target-vessel revascularization ([1]; At 8 mo, Kaplan-Meier estimate): (12.9) %
- Death ([1]; At 8 mo, Kaplan-Meier estimate): (3.8) %
- Death or reinfarction ([1]; At 8 mo, Kaplan-Meier estimate): (6.5) %
- Definite or probable or possible stent thrombosis ([1]; At 8 mo, Kaplan-Meier estimate): (4.3) %
- Definite or probable stent thrombosis ([1]; At 8 mo, Kaplan-Meier estimate): (3.2) %
- Definite stent thrombosis ([1]; At 8 mo, Kaplan-Meier estimate): (2.2) %
- Possible stent thrombosis ([1]; At 8 mo, Kaplan-Meier estimate): (1.6) %
- Reinfarction ([1]; At 8 mo, Kaplan-Meier estimate): (4.3) %
- Clinically driven target-vessel revascularization [1, 4]: 17 No.
- Composite of death, reinfarction, or target-vessel revascularization [1, 4]: 24 No.
- Death [1, 4]: 7 No.
- Death or reinfarction [1, 4]: 12 No.
- Definite or probable or possible stent thrombosis [1, 4]: 8 No.
- Definite or probable stent thrombosis [1, 4]: 6 No.
- Definite stent thrombosis [1, 4]: 4 No.
- Possible stent thrombosis [1, 4]: 3 No.
- Reinfarction [1, 4]: 8 No.
- Clinically driven target-vessel revascularization ([1]; At 30 d, Kaplan-Meier estimate): (1.6) %
- Composite of death, reinfarction, or target-vessel revascularization ([1]; At 30 d, Kaplan-Meier estimate): (3.8) %
- Death ([1]; At 30 d, Kaplan-Meier estimate): (1.1) %
- Death or reinfarction ([1]; At 30 d, Kaplan-Meier estimate): (3.8) %
- Definite or probable stent thrombosis ([1]; At 30 d, Kaplan-Meier estimate): (2.7) %
- Definite stent thrombosis ([1]; At 30 d, Kaplan-Meier estimate): (1.6) %
- Probable stent thrombosis ([1]; At 30 d, Kaplan-Meier estimate): (1.1) %
- Reinfarction ([1]; At 30 d, Kaplan-Meier estimate): (2.7) %
- Clinically driven target-vessel revascularization [1, 5]: 3 No.
- Composite of death, reinfarction, or target-vessel revascularization [1, 5]: 7 No.
- Death [1, 5]: 2 No.
- Death or reinfarction [1, 5]: 7 No.
- Definite or probable stent thrombosis [1, 5]: 5 No.
- Definite stent thrombosis [1, 5]: 3 No.
- Probable stent thrombosis [1, 5]: 2 No.
- Reinfarction [1, 5]: 5 No.

Compound: CCCCS(=O)(=O)N[C@@H](Cc1ccc(OCCCCC2CCNCC2)cc1)C(=O)O.Cl [Tirofiban, N-(butylsulfonyl)-O-[4-(4-piperidinyl)butyl]-tyrosine monohydrochloride]
- Clinically driven target-vessel revascularization ([1]; At 8 mo, Kaplan-Meier estimate): (6.2) %
- Composite of death, reinfarction, or target-vessel revascularization ([1]; At 8 mo, Kaplan-Meier estimate): (9.9) %
- Death ([1]; At 8 mo, Kaplan-Meier estimate): (3.0) %
- Death or reinfarction ([1]; At 8 mo, Kaplan-Meier estimate): (5.9) %
- Definite or probable or possible stent thrombosis ([1]; At 8 mo, Kaplan-Meier estimate): (3.8) %
- Definite or probable stent thrombosis ([1]; At 8 mo, Kaplan-Meier estimate): (3.2) %
- Definite stent thrombosis ([1]; At 8 mo, Kaplan-Meier estimate): (2.7) %
- Possible stent thrombosis ([1]; At 8 mo, Kaplan-Meier estimate): (0.8) %
- Reinfarction ([1]; At 8 mo, Kaplan-Meier estimate): (4.3) %
- Clinically driven target-vessel revascularization [1, 4]: 23 No.
- Composite of death, reinfarction, or target-vessel revascularization [1, 4]: 37 No.
- Death [1, 4]: 11 No.
- Death or reinfarction [1, 4]: 22 No.
- Definite or probable or possible stent thrombosis [1, 4]: 14 No.
- Definite or probable stent thrombosis [1, 4]: 12 No.
- Definite stent thrombosis [1, 4]: 10 No.
- Possible stent thrombosis [1, 4]: 3 No.
- Reinfarction [1, 4]: 16 No.
- Clinically driven target-vessel revascularization ([1]; At 30 d, Kaplan-Meier estimate): (2.2) %
- Composite of death, reinfarction, or target-vessel revascularization ([1]; At 30 d, Kaplan-Meier estimate): (4.0) %
- Death ([1]; At 30 d, Kaplan-Meier estimate): (1.1) %
- Death or reinfarction ([1]; At 30 d, Kaplan-Meier estimate): (3.8) %
- Definite or probable stent thrombosis ([1]; At 30 d, Kaplan-Meier estimate): (2.4) %
- Definite stent thrombosis ([1]; At 30 d, Kaplan-Meier estimate): (1.9) %
- Probable stent thrombosis ([1]; At 30 d, Kaplan-Meier estimate): (0.5) %
- Reinfarction ([1]; At 30 d, Kaplan-Meier estimate): (2.7) %
- Clinically driven target-vessel revascularization [1, 5]: 8 No.
- Composite of death, reinfarction, or target-vessel revascularization [1, 5]: 15 No.
- Death [1, 5]: 4 No.
- Death or reinfarction [1, 5]: 14 No.
- Definite or probable stent thrombosis [1, 5]: 9 No.
- Definite stent thrombosis [1, 5]: 7 No.
- Probable stent thrombosis [1, 5]: 2 No.
- Reinfarction [1, 5]: 10 No.
- incidence of MACE ([1]; At 30 days): 4.0%
- incidence of MACE ([1]; At eight months): 9.9%
- probability of death/MI [1]: 5.9%
- recovery from ST-segment elevation after coronary intervention in comparison with abciximab ([2]; consistent across recruiting centers and prespecified subgroups): noninferior
- percentage of patients achieving at least 50% ST-segment resolution [2]: 85.3%
- patients achieving at least 50% ST-segment resolution [2]: 308 patients

Compound: Abciximab: inhibitor of the glycoprotein (GP) IIb/IIIa receptor complex; comparator drug
- Clinically driven target-vessel revascularization ([1]; At 8 mo, Kaplan-Meier estimate): (7.3) %
- Composite of death, reinfarction, or target-vessel revascularization ([1]; At 8 mo, Kaplan-Meier estimate): (12.4) %
- Death ([1]; At 8 mo, Kaplan-Meier estimate): (4.0) %
- Death or reinfarction ([1]; At 8 mo, Kaplan-Meier estimate): (7.5) %
- Definite or probable or possible stent thrombosis ([1]; At 8 mo, Kaplan-Meier estimate): (4.3) %
- Definite or probable stent thrombosis ([1]; At 8 mo, Kaplan-Meier estimate): (3.5) %
- Definite stent thrombosis ([1]; At 8 mo, Kaplan-Meier estimate): (2.7) %
- Possible stent thrombosis ([1]; At 8 mo, Kaplan-Meier estimate): (1.1) %
- Reinfarction ([1]; At 8 mo, Kaplan-Meier estimate): (3.5) %
- Clinically driven target-vessel revascularization [1, 4]: 27 No.
- Composite of death, reinfarction, or target-vessel revascularization [1, 4]: 46 No.
- Death [1, 4]: 15 No.
- Death or reinfarction [1, 4]: 28 No.
- Definite or probable or possible stent thrombosis [1, 4]: 16 No.
- Definite or probable stent thrombosis [1, 4]: 13 No.
- Definite stent thrombosis [1, 4]: 10 No.
- Possible stent thrombosis [1, 4]: 4 No.
- Reinfarction [1, 4]: 13 No.
- Clinically driven target-vessel revascularization ([1]; At 30 d, Kaplan-Meier estimate): (1.6) %
- Composite of death, reinfarction, or target-vessel revascularization ([1]; At 30 d, Kaplan-Meier estimate): (4.3) %
- Death ([1]; At 30 d, Kaplan-Meier estimate): (2.4) %
- Death or reinfarction ([1]; At 30 d, Kaplan-Meier estimate): (3.8) %
- Definite or probable stent thrombosis ([1]; At 30 d, Kaplan-Meier estimate): (2.2) %
- Definite stent thrombosis ([1]; At 30 d, Kaplan-Meier estimate): (1.3) %
- Probable stent thrombosis ([1]; At 30 d, Kaplan-Meier estimate): (0.8) %
- Reinfarction ([1]; At 30 d, Kaplan-Meier estimate): (1.3) %
- Clinically driven target-vessel revascularization [1, 5]: 6 No.
- Composite of death, reinfarction, or target-vessel revascularization [1, 5]: 16 No.
- Death [1, 5]: 9 No.
- Death or reinfarction [1, 5]: 14 No.
- Definite or probable stent thrombosis [1, 5]: 8 No.
- Definite stent thrombosis [1, 5]: 5 No.
- Probable stent thrombosis [1, 5]: 3 No.
- Reinfarction [1, 5]: 5 No.
- incidence of MACE ([1]; At 30 days): 4.37%
- incidence of MACE ([1]; At eight months): 12.4%
- probability of death/MI [1]: 7.5%
- Major bleeding [3]: (1.6) %
- Minor bleedng [3]: (6.2) %
- Moderate thrombocytoperia (<100000 cells/mm^3) [3]: (1.6) %
- Red blood cells transfusion ≧1 Units [3]: (2.2) %
- Red blood cells transfusion ≧2 Units [3]: (2.2) %
- Severe thrombocytoperia (<50000 cells/mm^3) [3]: (2.4) %
- Major bleeding ([3]; number of patients): 6 No.
- Minor bleedng ([3]; number of patients): 23 No.
- Moderate thrombocytoperia (<100000 cells/mm^3) ([3]; number of patients): 6 No.
- Red blood cells transfusion ≧1 Units ([3]; number of patients): 8 No.
- Red blood cells transfusion ≧2 Units ([3]; number of patients): 8 No.
- Severe thrombocytoperia (<50000 cells/mm^3) ([3]; number of patients): 9 No.
- TIMI major and minor bleeding ([3]; At 30 days): 7.8%
- incidence of severe or moderate thrombocytopenia ([3]; At 30 days): 4.0%
- mortality rates of nonthrombocytopenic patients ([3]; HDB tirofiban compared with abciximab, follow-up, FIG. 3): virtually identical
- patients with drug-induced thrombocytopenia who died ([3]; within eight months, FIG. 3): 20%
- percentage of patients achieving at least 50% ST-segment resolution [2]: 83.6%
- patients achieving at least 50% ST-segment resolution [2]: 302 patients
